Laboratory results as given in ChEMBL document CHEMBL1145137, “Design, synthesis, and crystal structure of selective 2-pyridone tissue factor VIIa inhibitors” (J Med Chem, 2003).

Experiments:
[1] = molecular target: Coagulation factor X (Homo sapiens, UniProt P00742); test: Inhibitory concentration against human Coagulation factor X
[2] = molecular target: Prothrombin (Homo sapiens, UniProt P00734); test: Inhibitory concentration against human thrombin
[3] = molecular target: T1, Coagulation factor VII (Homo sapiens, UniProt P08709); test: Inhibitory concentration against recombinant human coagulation factor VII
T1 sequence (P08709 whole entry): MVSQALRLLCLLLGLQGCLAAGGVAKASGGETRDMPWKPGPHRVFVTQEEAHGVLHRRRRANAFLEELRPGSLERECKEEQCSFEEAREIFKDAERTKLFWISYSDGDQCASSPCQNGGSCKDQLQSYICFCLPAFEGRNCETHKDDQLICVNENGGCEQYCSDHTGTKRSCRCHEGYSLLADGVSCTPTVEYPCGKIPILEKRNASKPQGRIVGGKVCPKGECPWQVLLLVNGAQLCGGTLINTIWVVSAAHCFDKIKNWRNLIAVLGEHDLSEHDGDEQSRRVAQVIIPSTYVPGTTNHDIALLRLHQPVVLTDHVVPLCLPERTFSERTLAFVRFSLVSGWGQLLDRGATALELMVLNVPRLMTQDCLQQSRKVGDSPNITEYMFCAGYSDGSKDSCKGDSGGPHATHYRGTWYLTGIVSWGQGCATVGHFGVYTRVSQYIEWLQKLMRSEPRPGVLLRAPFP

Coagulation factor X, sequence (P00742 41-179 limits assumed): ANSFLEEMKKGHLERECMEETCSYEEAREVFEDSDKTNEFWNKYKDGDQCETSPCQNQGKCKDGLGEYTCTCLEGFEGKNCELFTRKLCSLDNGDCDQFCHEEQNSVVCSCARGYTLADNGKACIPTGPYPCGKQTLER
Coagulation factor X, sequence (P00742 235-488 limits assumed): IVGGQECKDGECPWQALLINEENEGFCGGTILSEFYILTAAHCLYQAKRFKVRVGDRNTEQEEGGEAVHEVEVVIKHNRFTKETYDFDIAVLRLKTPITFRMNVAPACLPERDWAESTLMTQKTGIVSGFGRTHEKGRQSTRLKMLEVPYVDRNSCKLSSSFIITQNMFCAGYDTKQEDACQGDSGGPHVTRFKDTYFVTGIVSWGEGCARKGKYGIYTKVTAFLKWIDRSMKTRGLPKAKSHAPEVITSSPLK

SMILES | IC50 [1] [nM] | IC50 [2] [nM] | IC50 [3] [nM]
CC(C)Nc1ccc(-c2cc(N)cc(C(=O)O)c2)n(CC(=O)NCc2ccc(C(=N)N)cc2)c1=O | > 30000 | > 30000 | 118
CC(C)Nc1ccc(-c2cc(N)cc(N)c2)n(CC(=O)NCc2ccc(C(=N)N)cc2)c1=O | – | – | 52
